From patent US20050234065A1, “Dipeptidyl peptidase-IV inhibitors” (Pfizer Inc, priority 2004, published 2005)

Target: T1, DPP-IV (Homo sapiens, UniProt P27487)
T1 construct: purchased Enzyme Systems Products SPE-01
Assay: In vitro assay for dipeptidyl peptidase inhibition
Format: biochemical
Conditions: IC50 (concentration of test compound required for 50% inhibition), hydrochloride salts; Gly-Pro-4-methoxy B naphthylamide substrate; overnight at 37° C.
Experimental: 150 μL of an enzyme-substrate solution was pipetted into microtiter wells of a polystyrene 96-well plate, and maintained at 4° C. The enzyme-substrate solution comprised 50 μM Gly-Pro-4-methoxy B naphthylamide HCl in 50 mM Tris assay buffer pH 7.3 containing 0.1M sodium chloride, 0.1% (v/v) Triton and 50 μU/mL DPP-IV (Enzyme Systems Products Cat#SPE-01, DPP-IV 5 mU/mL stock). 5 μL/well of compounds of Formula (I) were added, bringing the final compound of Formula (I) concentrations to 3 μM-10 nM per well.
Controls. Enzyme was omitted from four (4) wells, as a reagent blank. 5 μL of 3 mM Diprotin A was added to four wells as a positive quality control, providing a final Diprotin A concentration of 100 μM. To measure total enzyme activity (i.e. a negative control), without the influence of any compounds of Formula (I), 5 μL of distilled water was added to four wells.
The entire assay was incubated overnight (about 14-18 hours) at 37° C.

T1 sequence (P27487 whole entry, species assumed): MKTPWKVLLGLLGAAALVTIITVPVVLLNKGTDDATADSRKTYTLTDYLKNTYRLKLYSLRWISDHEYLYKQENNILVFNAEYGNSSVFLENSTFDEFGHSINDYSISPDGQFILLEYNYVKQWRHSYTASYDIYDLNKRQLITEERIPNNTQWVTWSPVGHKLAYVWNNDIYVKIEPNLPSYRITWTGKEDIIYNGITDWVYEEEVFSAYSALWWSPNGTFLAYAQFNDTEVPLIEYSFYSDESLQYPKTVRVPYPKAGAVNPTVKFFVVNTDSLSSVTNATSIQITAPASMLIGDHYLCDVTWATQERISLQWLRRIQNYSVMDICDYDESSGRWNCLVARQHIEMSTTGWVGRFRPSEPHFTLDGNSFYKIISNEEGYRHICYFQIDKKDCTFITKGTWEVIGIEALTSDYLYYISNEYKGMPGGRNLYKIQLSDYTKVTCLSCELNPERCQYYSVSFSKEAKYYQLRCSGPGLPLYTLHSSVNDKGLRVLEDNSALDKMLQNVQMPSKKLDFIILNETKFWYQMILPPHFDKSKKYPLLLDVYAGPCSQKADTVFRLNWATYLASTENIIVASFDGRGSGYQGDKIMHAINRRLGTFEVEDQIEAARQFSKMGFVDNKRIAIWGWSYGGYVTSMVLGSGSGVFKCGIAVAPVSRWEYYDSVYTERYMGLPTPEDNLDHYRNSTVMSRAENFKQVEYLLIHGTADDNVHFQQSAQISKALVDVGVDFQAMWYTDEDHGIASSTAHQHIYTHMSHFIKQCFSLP

SMILES | IC50 [µM]
CN(CC(=O)N[C@H]1CC[C@H]([C@H](N)C(=O)N2CCC(F)(F)C2)CC1)C(=O)Oc1ccccc1 [Example 33, ({trans-4-[(1S)-1-amino-2-(3,3-difluoro-pyrrolidin-1-yl)-2-oxo-ethyl]-cyclohexylcarbamoyl}-methyl)-methyl-carbamic acid phenyl ester] | ≤ 0.1

Same assay, conditions: hydrochloride salts; Gly-Pro-4-methoxy B naphthylamide substrate; overnight at 37° C.; read-out: IC50 (concentration of test compound required for 50% inhibition)

SMILES | IC50 [µM]
N[C@H](C(=O)N1CCCC1)[C@H]1CC[C@H](NC(=O)[C@@H]2C[C@@H](O)CN2C(=O)OCc2ccccc2)CC1 [Example 12, (2S,4R)-2-[trans-4-((1S)-1-amino-2-oxo-2-pyrrolidin-1-yl-ethyl)-cyclohexylcarbamoyl]-4-hydroxy-pyrrolidine-1-carboxylic acid benzyl ester] | ≤ 0.1
N[C@H](C(=O)N1CCCC1)[C@H]1CC[C@H](NC(=O)C[C@H]2C(=O)OCN2C(=O)OCc2ccccc2)CC1 [Example 13, (4S)-4-{[trans-4-((1S)-1-amino-2-oxo-2-pyrrolidin-1-yl-ethyl)-cyclohexylcarbamoyl]-methyl}-5-oxo-oxazolidine-3-carboxylic acid benzyl ester] | ≤ 0.1
N[C@H](C(=O)N1CCCC1)[C@H]1CC[C@H](NC(=O)[C@@H]2CCC(=O)N2C(=O)OCc2ccccc2)CC1 [Example 14, (2S)-2-[trans-4-(1-(1S)-amino-2-oxo-2-pyrrolidin-1-yl-ethyl)-cyclohexylcarbamoyl]-5-oxo-pyrrolidine-1-carboxylic acid benzyl ester] | 0.1 to 0.5
N[C@H](C(=O)N1CCCC1)[C@H]1CC[C@H](NC(=O)[C@H]2CCC(=O)N2C(=O)OCc2ccccc2)CC1 [Example 15, (2R)-2-[trans-4-(1-(S)-amino-2-oxo-2-pyrrolidin-1-yl-ethyl)-cyclohexylcarbamoyl]-5-oxo-pyrrolidine-1-carboxylic acid benzyl ester] | ≤ 0.1
N[C@H](C(=O)N1CCCC1)[C@H]1CC[C@H](NC(=O)[C@@H]2COC(=O)N2Cc2ccccc2)CC1 [Example 16, (4S)-3-benzyl-2-oxo-oxazolidine-4-carboxylic acid [trans-4-((1S)-1-Amino-2-oxo-2-pyrrolidin-1-yl-ethyl)-cyclohexyl]-amide] | ≤ 0.1
CN(C(=O)OCc1ccccc1)C(C)(C)C(=O)N[C@H]1CC[C@H]([C@H](N)C(=O)N2CCCC2)CC1 [Example 17, (S)-{1-[trans-4-(1-amino-2-oxo-2-pyrrolidin-1-yl-ethyl)-cyclohexylcarbamoyl]-1-methyl-ethyl)-methyl-carbamic acid benzyl ester] | 0.1 to 0.5
NC(=O)c1nccnc1C(=O)N[C@H]1CC[C@H]([C@H](N)C(=O)N2CCCC2)CC1 [Example 19, (S)-pyrazine-2,3-dicarboxylic acid amide [trans-4-(1-amino-2-oxo-2-pyrrolidin-1-yl-ethyl)-cyclohexyl]-amide] | ≤ 0.1
N[C@H](C(=O)N1CCCC1)[C@H]1CC[C@H](NC(=O)CN2C(=O)c3ccccc3/C2=C\c2ccccc2)CC1 [Example 20, N-[trans-4-(1-(1S)-amino-2-oxo-2-pyrrolidin-1-yl-ethyl)-cyclohexyl]-2-(1-benzylidene-3-oxo-1,3-dihydro-isoindol-2-yl)-acetamide] | ≤ 0.1
NC(C(=O)N1CCCC1)C1CCC(NC(=O)C2CC(O)CN2)CC1 [Example 21, (1S,4R)-4-hydroxy-pyrrolidine-2-carboxylic acid [trans-4-((1S)-1-amino-2-oxo-2-pyrrolidin-1-yl-ethyl)-cyclohexyl]-amide] | 0.1 to 0.5
N[C@H](C(=O)N1CCCC1)[C@H]1CC[C@H](N2C(=O)c3nccnc3C2=O)CC1 [Example 22, 6-[trans-4-((1S)-1-amino-2-oxo-2-pyrrolidin-1-yl-ethyl)-cyclohexyl]-pyrrolo[3,4-b]pyrazine-5,7-dione] | ≤ 0.1
N[C@H](C(=O)N1CCCC1)[C@H]1CC[C@H](N2C(=O)c3cccnc3C2=O)CC1 [Example 24, 6-[trans-4-((1S)-1-amino-2-oxo-2-pyrrolidin-1-yl-ethyl)-cyclohexyl]-pyrrolo[3,4-b]pyridine-5,7-dione] | ≤ 0.1
N[C@H](C(=O)N1CCCC1)[C@H]1CC[C@H](NC(=O)N2CCC[C@H]2COCc2ccccc2)CC1 [Example 25, 2-benzyloxymethyl-pyrrolidine-1-carboxylic acid [trans-4-((1S)-1-Amino-2-oxo-2-pyrrolidin-1-yl-ethyl)-cyclohexyl]-amide] | ≤ 0.1
N[C@H](C(=O)N1CCCC1)[C@H]1CC[C@H](N2C(=O)O[C@@H](c3ccccc3)C2=O)CC1 [Example 28, 3-[trans-4-((1S)-1-amino-2-oxo-2-pyrrolidin-1-yl-ethyl)-cyclohexyl]-(5S)-5-phenyl-oxazolidine-2,4-dione] | 0.1 to 0.5
N[C@H](C(=O)N1CCC(F)(F)C1)[C@H]1CC[C@H](NC(=O)[C@@H]2CNC(=O)N2C(=O)OCc2ccccc2)CC1 [Example 29, (5S)-5-{trans-4-[(1S)-1-amino-2-(3,3-difluoro-pyrrolidin-1-yl)-2-oxo-ethyl]-cyclohexylcarbamoyl}-2-oxo-imidazolidine-1-carboxylic acid benzyl ester] | ≤ 0.1
CN(CC(=O)N[C@H]1CC[C@H]([C@H](N)C(=O)N2CCC(F)(F)C2)CC1)C(=O)OCc1ccccc1 [Example 30, (S)-({trans-4-[1-amino-2-(3,3-difluoro-pyrrolidin-1-yl)-2-oxo-ethyl]-cyclohexylcarbamoyl}-methyl)-methyl-carbamic acid benzyl ester] | ≤ 0.1
N[C@H](C(=O)N1CCC(F)(F)C1)[C@H]1CC[C@H](NC(=O)[C@@H]2C[C@@H](O)CN2C(=O)OCc2ccccc2)CC1 [Example 31, 2-{trans-4-[1-(1S)-amino-2-(3,3-difluoro-pyrrolidin-1-yl)-2-oxo-ethyl]-cyclohexylcarbamoyl}-(4R)-4-hydroxy-pyrrolidine-1-carboxylic acid benzyl ester] | ≤ 0.1
Nc1nccnc1C(=O)N[C@H]1CC[C@H]([C@H](N)C(=O)N2CCC(F)(F)C2)CC1 [Example 32, (S)-3-amino-pyrazine-2-carboxylic acid {trans-4-[1-amino-2-(3,3-difluoro-pyrrolidin-1-yl)-2-oxo-ethyl]-cyclohexyl}-amide] | ≤ 0.1
CN(CC(=O)N[C@H]1CC[C@H]([C@H](N)C(=O)N2CCCC2)CC1)C(=O)OCc1ccccc1 [Example 34, (S)-{[trans-4-(1-amino-2-oxo-2-pyrrolidin-1-yl-ethyl)-cyclohexylcarbamoyl]-methyl}-methyl-carbamic acid benzyl ester] | 0.1 to 0.5
N#C[C@@H]1CCCN1C(=O)[C@@H](N)[C@H]1CC[C@H](NC(=O)c2nccnc2N)CC1 [Example 36, 3-amino-pyrazine-2-carboxylic acid {trans-4-[(1S)-1-amino-2-((2S)-2-cyano-pyrrolidin-1-yl)-2-oxo-ethyl]-cyclohexyl}-amide] | ≤ 0.1
CN(CC(=O)N[C@H]1CC[C@H]([C@H](N)C(=O)N2CCC[C@H]2C#N)CC1)C(=O)OCc1ccccc1 [Example 37, ({trans-4-[(1S)-1-amino-2-((2S)-2-cyano-pyrrolidin-1-yl)-2-oxo-ethyl]-cyclohexylcarbamoyl}-methyl)-methyl-carbamic acid benzyl ester] | ≤ 0.1
Nc1ncccc1C(=O)N[C@H]1CC[C@H]([C@H](N)C(=O)N2CCCC2)CC1 [Example 38, (S)-2-amino-N-[trans-4-(1-amino-2-oxo-2-pyrrolidin-1-yl-ethyl)-cyclohexyl]-nicotinamide] | ≤ 0.1
